Assay [1] addresses T1, HCV NS3/4A protease complex, BMS strain (UniProt P27958, species not given/STRAIN_BMS).
T1 construct: other: NS3/4A BMS strain; activity range class; numeric values, unit not given; said of H77 and J4L6S; fused on or other part: A three-lysine solubilising tail at the C-terminus of NS4A; A His tag is implied by the pET21b vector and Ni-NTA purification; Both are printed for the H77 and J4L6S constructs and apply to BMS by inference
Description: FRET peptide assay to monitor HCV NS3/4A proteolytic activity (BMS strain). In kind it is biochemical, Hepatitis C virus (genotype 1a). As to conditions: read-out: HCV Protease (IC50); NS3/4A BMS strain; activity range class. The gist of the method: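 Purified recombinant NS3/4A complex from genotype 1a BMS strain, 2-3 nM final, with RET S1 EDANS/DABCYL depsipeptide substrate at 2 μM final in HEPES pH 7.5, NaCl, Triton, glycerol, βME. Cleavage followed in real time by fluorescence. For high-potency compounds: 50 μg/ml BSA added, protease lowered to 300 pM.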

For assay [2], the system named is HCV replicon (strain 1b) in HUH-7 cells. Description: HCV replicon FRET assay. In kind it is cell-based, Hepatitis C virus. As to conditions: Hepatitis C virus, Huh-7, read-out: HCV Pro Replicon (EC50), HCV replicon cell assay; activity range class.

T1 sequence (P27958 1027-1657, change not shown, one chain of several): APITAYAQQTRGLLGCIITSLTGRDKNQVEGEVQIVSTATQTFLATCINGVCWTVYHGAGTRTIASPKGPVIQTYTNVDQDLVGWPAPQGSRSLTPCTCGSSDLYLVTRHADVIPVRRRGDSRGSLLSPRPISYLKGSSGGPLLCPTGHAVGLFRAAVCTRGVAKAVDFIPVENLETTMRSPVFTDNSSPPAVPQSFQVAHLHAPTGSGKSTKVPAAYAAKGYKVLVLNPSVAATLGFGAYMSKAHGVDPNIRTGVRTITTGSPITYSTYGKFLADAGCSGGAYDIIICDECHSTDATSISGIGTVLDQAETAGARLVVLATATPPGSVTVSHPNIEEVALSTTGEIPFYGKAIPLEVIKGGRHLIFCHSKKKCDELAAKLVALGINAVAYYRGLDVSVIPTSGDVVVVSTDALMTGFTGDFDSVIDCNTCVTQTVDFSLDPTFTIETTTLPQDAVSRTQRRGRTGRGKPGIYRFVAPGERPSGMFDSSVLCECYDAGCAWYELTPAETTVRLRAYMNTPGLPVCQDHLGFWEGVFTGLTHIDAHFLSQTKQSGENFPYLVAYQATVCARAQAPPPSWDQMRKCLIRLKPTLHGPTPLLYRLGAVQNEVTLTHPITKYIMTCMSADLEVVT

In the case of `C=C[C@@H]1C[C@]1(NC(=O)[C@@H]1C[C@@H](Oc2ncc(OC)c3ccc(Cl)cc23)CN1C(=O)[C@@H](Nc1cccc(S(N)(=O)=O)c1)C(C)(C)C)C(=O)NS(=O)(=O)C1CC1` [207 first isomer, 3-methyl-N-(3-sulfamoylphenyl)-L-valyl-(4R)-4-((7-chloro-4-methoxy-1-isoquinolinyl)oxy)-N-((1R,2S)-1-((cyclopropylsulfonyl)carbamoyl)-2-vinylcyclopropyl)-L-prolinamide], the concentration for half-maximal inhibition (IC50) in assay [1] was 0.6 to 20 nM. Further, the EC50 in assay [2] is 3 to 100 nM.

As to `C=C[C@@H]1C[C@]1(NC(=O)[C@@H]1C[C@@H](Oc2ncc(OC)c3ccc(Cl)cc23)CN1C(=O)[C@H](Nc1cccc(S(N)(=O)=O)c1)C(C)(C)C)C(=O)NS(=O)(=O)C1CC1` [207 second isomer, 3-methyl-N-(3-sulfamoylphenyl)-D-valyl-(4R)-4-((7-chloro-4-methoxy-1-isoquinolinyl)oxy)-N-((1R,2S)-1-((cyclopropylsulfonyl)carbamoyl)-2-vinylcyclopropyl)-L-prolinamide], the IC50 in assay [1] is more than 200 nM. The half-maximal effective concentration (EC50) in assay [2] is more than 1000 nM.

Regarding `C=C[C@@H]1C[C@]1(NC(=O)[C@@H]1C[C@@H](Oc2ncc(OC)c3ccc(Cl)cc23)CN1C(=O)[C@@H](Nc1cccc(F)c1F)C(C)(C)C)C(=O)NS(=O)(=O)C1CC1` [208 first isomer, N-(2,3-difluorophenyl)-3-methyl-L-valyl-(4R)-4-((7-chloro-4-methoxy-1-isoquinolinyl)oxy)-N-((1R,2S)-1-((cyclopropylsulfonyl)carbamoyl)-2-vinylcyclopropyl)-L-prolinamide], the IC50 in assay [1] lay in the range of 0.6 to 20 nM. The EC50 in assay [2] was 3 to 100 nM.

In the case of `C=C[C@@H]1C[C@]1(NC(=O)[C@@H]1C[C@@H](Oc2ncc(OC)c3ccc(Cl)cc23)CN1C(=O)[C@@H](Nc1ccc(C(=O)O)cc1)C(C)(C)C)C(=O)NS(=O)(=O)C1CC1` [209 first isomer, N-(4-carboxyphenyl)-3-methyl-L-valyl-(4R)-4-((7-chloro-4-methoxy-1-isoquinolinyl)oxy)-N-((1R,2S)-1-((cyclopropylsulfonyl)carbamoyl)-2-vinylcyclopropyl)-L-prolinamide], in assay [1], the IC50 lay in the range of 0.6 to 20 nM. Also, in assay [2], the concentration for a half-maximal effect (EC50) was in the range of 3 to 100 nM.

With `C=C[C@@H]1C[C@]1(NC(=O)[C@@H]1C[C@@H](Oc2ncc(OC)c3ccc(Cl)cc23)CN1C(=O)[C@H](Nc1ccc(C(=O)O)cc1)C(C)(C)C)C(=O)NS(=O)(=O)C1CC1` [209 second isomer, N-(4-carboxyphenyl)-3-methyl-D-valyl-(4R)-4-((7-chloro-4-methoxy-1-isoquinolinyl)oxy)-N-((1R,2S)-1-((cyclopropylsulfonyl)carbamoyl)-2-vinylcyclopropyl)-L-prolinamide], the concentration for half-maximal inhibition (IC50) in assay [1] is more than 200 nM. In assay [2], the concentration for a half-maximal effect (EC50) was more than 1000 nM.

For `C=C[C@@H]1C[C@]1(NC(=O)[C@@H]1C[C@@H](Oc2ncc(OC)c3ccc(Cl)cc23)CN1C(=O)[C@@H](Nc1cccc(C(=O)OC(C)(C)C)c1)C(C)(C)C)C(=O)NS(=O)(=O)C1CC1` [210 first isomer, N-(3-(tert-butoxycarbonyl)phenyl)-3-methyl-L-valyl-(4R)-4-((7-chloro-4-methoxy-1-isoquinolinyl)oxy)-N-((1R,2S)-1-((cyclopropylsulfonyl)carbamoyl)-2-vinylcyclopropyl)-L-prolinamide], the concentration for half-maximal inhibition (IC50) in assay [1] was in the range of 0.6 to 20 nM. Besides, the 50% effective concentration (EC50) in assay [2] fell in the range of 3 to 100 nM.

As for `C=C[C@@H]1C[C@]1(NC(=O)[C@@H]1C[C@@H](Oc2ncc(OC)c3ccc(Cl)cc23)CN1C(=O)[C@H](Nc1cccc(C(=O)OC(C)(C)C)c1)C(C)(C)C)C(=O)NS(=O)(=O)C1CC1` [210 second isomer, N-(3-(tert-butoxycarbonyl)phenyl)-3-methyl-D-valyl-(4R)-4-((7-chloro-4-methoxy-1-isoquinolinyl)oxy)-N-((1R,2S)-1-((cyclopropylsulfonyl)carbamoyl)-2-vinylcyclopropyl)-L-prolinamide], the IC50 in assay [1] lay within 20 to 200 nM. For the same compound, in assay [2], the EC50 is 100 to 1000 nM.

As for `C=C[C@@H]1C[C@]1(NC(=O)[C@@H]1C[C@@H](Oc2ncc(OC)c3ccc(Cl)cc23)CN1C(=O)[C@@H](Nc1cccc(C(=O)O)c1)C(C)(C)C)C(=O)NS(=O)(=O)C1CC1` [211 first isomer, N-(3-carboxyphenyl)-3-methyl-L-valyl-(4R)-4-((7-chloro-4-methoxy-1-isoquinolinyl)oxy)-N-((1R,2S)-1-((cyclopropylsulfonyl)carbamoyl)-2-vinylcyclopropyl)-L-prolinamide], the IC50 in assay [1] is 0.6 to 20 nM. Also, the EC50 in assay [2] lay within 3 to 100 nM.

For the compound `C=C[C@@H]1C[C@]1(NC(=O)[C@@H]1C[C@@H](Oc2ncc(OC)c3ccc(Cl)cc23)CN1C(=O)[C@H](Nc1cccc(C(=O)O)c1)C(C)(C)C)C(=O)NS(=O)(=O)C1CC1` [211 second isomer, N-(3-carboxyphenyl)-3-methyl-D-valyl-(4R)-4-((7-chloro-4-methoxy-1-isoquinolinyl)oxy)-N-((1R,2S)-1-((cyclopropylsulfonyl)carbamoyl)-2-vinylcyclopropyl)-L-prolinamide], in assay [1], the 50% inhibitory concentration (IC50) is more than 200 nM. The EC50 in assay [2] was in the range of 3 to 100 nM.

As to `C=C[C@@H]1C[C@]1(NC(=O)[C@@H]1C[C@@H](Oc2ncc(OC)c3ccc(Cl)cc23)CN1C(=O)[C@@H](Nc1cccc(C(=O)NC(C)(C)C)c1)C(C)(C)C)C(=O)NS(=O)(=O)C1CC1` [212 first isomer, N-(3-(tert-butylcarbamoyl)phenyl)-3-methyl-L-valyl-(4R)-4-((7-chloro-4-methoxy-1-isoquinolinyl)oxy)-N-((1R,2S)-1-((cyclopropylsulfonyl)carbamoyl)-2-vinylcyclopropyl)-L-prolinamide], in assay [1], the IC50 is more than 200 nM. In assay [2], the EC50 was 100 to 1000 nM.

With `C=C[C@@H]1C[C@]1(NC(=O)[C@@H]1C[C@@H](Oc2ncc(OC)c3ccc(Cl)cc23)CN1C(=O)[C@H](Nc1cccc(C(=O)NC(C)(C)C)c1)C(C)(C)C)C(=O)NS(=O)(=O)C1CC1` [212 second isomer, N-(3-(tert-butylcarbamoyl)phenyl)-3-methyl-D-valyl-(4R)-4-((7-chloro-4-methoxy-1-isoquinolinyl)oxy)-N-((1R,2S)-1-((cyclopropylsulfonyl)carbamoyl)-2-vinylcyclopropyl)-L-prolinamide], the IC50 in assay [1] is 0.6 to 20 nM. Further, the concentration giving a half-maximal response (EC50) in assay [2] lay within 3 to 100 nM.

In the case of `C=C[C@@H]1C[C@]1(NC(=O)[C@@H]1C[C@@H](Oc2ncc(OC)c3ccc(Cl)cc23)CN1C(=O)[C@@H](Nc1ccc(S(=O)(=O)NC(C)(C)C)cc1)C(C)(C)C)C(=O)NS(=O)(=O)C1CC1` [214 first isomer, N-(4-(tert-butylsulfamoyl)phenyl)-3-methyl-L-valyl-(4R)-4-((7-chloro-4-methoxy-1-isoquinolinyl)oxy)-N-((1R,2S)-1-((cyclopropylsulfonyl)carbamoyl)-2-vinylcyclopropyl)-L-prolinamide], the concentration for half-maximal inhibition (IC50) in assay [1] was in the range of 0.6 to 20 nM. The EC50 in assay [2] fell in the range of 100 to 1000 nM.

`C=C[C@@H]1C[C@]1(NC(=O)[C@@H]1C[C@@H](Oc2ncc(OC)c3ccc(Cl)cc23)CN1C(=O)[C@@H](Nc1cccc(C(N)=O)c1)C(C)(C)C)C(=O)NS(=O)(=O)C1CC1` [217 first isomer, N-(3-carbamoylphenyl)-3-methyl-L-valyl-(4R)-4-((7-chloro-4-methoxy-1-isoquinolinyl)oxy)-N-((1R,2S)-1-((cyclopropylsulfonyl)carbamoyl)-2-vinylcyclopropyl)-L-prolinamide]: the 50% inhibitory concentration (IC50) in assay [1] is 0.6 to 20 nM. For the same compound, the EC50 in assay [2] was 3 to 100 nM.

In the case of `C=C[C@@H]1C[C@]1(NC(=O)[C@@H]1C[C@@H](Oc2ncc(OC)c3ccc(Cl)cc23)CN1C(=O)[C@@H](Nc1cccc(C(=O)N(C)C)c1)C(C)(C)C)C(=O)NS(=O)(=O)C1CC1` [218 first isomer, N-(3-(dimethylcarbamoyl)phenyl)-3-methyl-L-valyl-(4R)-4-((7-chloro-4-methoxy-1-isoquinolinyl)oxy)-N-((1R,2S)-1-((cyclopropylsulfonyl)carbamoyl)-2-vinylcyclopropyl)-L-prolinamide], the IC50 in assay [1] was 0.6 to 20 nM. In addition, in assay [2], the EC50 lay within 3 to 100 nM.

Take `C=C[C@@H]1C[C@]1(NC(=O)[C@@H]1C[C@@H](Oc2ncc(OC)c3ccc(Cl)cc23)CN1C(=O)[C@H](Nc1cccc(C(=O)N(C)C)c1)C(C)(C)C)C(=O)NS(=O)(=O)C1CC1` [218 second isomer, N-(3-(dimethylcarbamoyl)phenyl)-3-methyl-D-valyl-(4R)-4-((7-chloro-4-methoxy-1-isoquinolinyl)oxy)-N-((1R,2S)-1-((cyclopropylsulfonyl)carbamoyl)-2-vinylcyclopropyl)-L-prolinamide]: in assay [1], the IC50 is more than 200 nM. Moreover, the EC50 in assay [2] is more than 1000 nM.

Regarding `C=C[C@@H]1C[C@]1(NC(=O)[C@@H]1C[C@@H](Oc2ncc(OC)c3ccc(Cl)cc23)CN1C(=O)[C@@H](Nc1cccc(S(=O)(=O)N(C)C)c1)C(C)(C)C)C(=O)NS(=O)(=O)C1CC1` [219 first isomer, N-(3-(dimethylsulfamoyl)phenyl)-3-methyl-L-valyl-(4R)-4-((7-chloro-4-methoxy-1-isoquinolinyl)oxy)-N-((1R,2S)-1-((cyclopropylsulfonyl)carbamoyl)-2-vinylcyclopropyl)-L-prolinamide], in assay [1], the IC50 was more than 200 nM. The concentration for a half-maximal effect (EC50) in assay [2] is more than 1000 nM.

For the compound `C=C[C@@H]1C[C@]1(NC(=O)[C@@H]1C[C@@H](Oc2ncc(OC)c3ccc(Cl)cc23)CN1C(=O)[C@H](Nc1cccc(S(=O)(=O)N(C)C)c1)C(C)(C)C)C(=O)NS(=O)(=O)C1CC1` [219 second isomer, N-(3-(dimethylsulfamoyl)phenyl)-3-methyl-D-valyl-(4R)-4-((7-chloro-4-methoxy-1-isoquinolinyl)oxy)-N-((1R,2S)-1-((cyclopropylsulfonyl)carbamoyl)-2-vinylcyclopropyl)-L-prolinamide], in assay [1], the IC50 fell in the range of 0.6 to 20 nM. Besides, the concentration giving a half-maximal response (EC50) in assay [2] lay in the range of 3 to 100 nM.

These data come from US7772180B2, “Hepatitis C virus inhibitors” (Bristol-Myers Squibb Company, priority 2006, dated 2010).
